Source: article PMC4995014, “Identification of ABC Transporter Interaction of a Novel Cyanoquinoline Radiotracer and Implications for Tumour Imaging by Positron Emission Tomography” (PLoS ONE, 2016)

Key:
cells = test: Cell uptake assay, overall magnitude of uptake; format: cell-based
Procedure: (§1) [^18F]FED6 and [^18F]FED20 were synthesised as previously reported. To increase specific radioactivity of [^18F]FED20, we modified the synthesis by decreasing the amount of alkyne precursor from 1 mg down to 0.5 mg. While this had the desired effect of increasing the specific activity from 7.3 GBq/μmol up to 52 GBq/μmol, the conversion of the alkyne to the triazole product dropped from > 95% down to 45%. Cells were seeded in 6 well plates and [^18F]FED6 (0.22 MBq) or [^18F]FED20 (0.55 MBq or 0.74 MBq) added to each well and incubated at 37°C for 1 h. Media were then removed and cells were washed twice with PBS. The cells were trypsinised and centrifuged for 3 minutes at 2000 rpm to obtain a pellet. The cell pellet was washed once with PBS and resuspended in 200 μL of RIPA buffer. Cell lysates were transferred to gamma counting tubes and the radioactivity in the pellet was measured on a Packard Cobra II gamma counter, (Perkin-Elmer, Waltham, Massachusetts, USA). Protein concentrations of samples were evaluated using Pierce® BCA Protein Assay Kit (Thermo Scientific, Waltham, Massachusetts, USA). Data were expressed as background- and decay-corrected counts per minute (CCPMA) per μg of cellular protein.

PC9 and PC9ER cells = test: Cell uptake assay in PC9 versus PC9ER cells; format: cell-based; settings: 1 h incubation
Procedure: as §1

[1] = biological target: T1, EGFR Del E746-A750/T790M (PC9ER cells) (Homo sapiens, UniProt P00533, DEL746-750/T790M); test: Inhibition of EGFR autophosphorylation (p-EGFR Y1068, western blot) in PC9ER cells; format: cell-based
T1 construct: endogenous in cells; host or cells: PC9ER (Dr Olivier Pardo, Imperial College London)
Procedure: (§2) Affinity of the cyanoquinolines for EGFR was established by measuring their inhibition of EGFR autophosphorylation via western blot. Cells were seeded in 6 well plates and following 24 h of growth, were subject to overnight serum starvation. The cells were then treated with increasing concentrations of cyanoquinolines prepared in serum free growth media from a DMSO stock (final DMSO concentration < 1%) for 3 h at 37°C, and stimulated for receptor autophosphorylation by addition of 100 ng/mL of EGF during the last 15 minutes of drug incubation. After 3 h the cells were placed on ice, media removed and then the cells were washed two times with ice cold phosphate buffered saline (PBS). Lysates were analysed by western blot to measure changes to p-EGFR Y1068.
(§3) Cells were collected into a microcentrifuge tube and sonicated for 30 seconds on ice. Cellular protein levels were assessed using a bicinchoninic acid (BCA) protein assay kit according to the manufacturer’s instructions (Thermo scientific). […] Samples were transferred to polyvinylidene difluoride (PVDF) membrane using Trans-Blot Turbo system BIO-RAD (Hercules, California, USA). […] The membranes were then incubated overnight with primary antibody prepared in 1% milk or 1% BSA in TBST. […] Membranes were washed a further three times for 10 minutes with TBST. Blots were visualised using chemoluminescence (ECL, GE Healthcare, Little Chalfont, UK) and developed on Amersham Hyperfilm ECL (GE Healthcare). β-Actin was used as a loading control.

EGFR = tested on: EGFR; design: method as in PMID 20797871, PMID 24307532; settings: cell-free; read-out: IC50 for inhibition of cell-free EGFR phosphorylation; cited from earlier work
[2] = biological target: T2, EGFR L858R/T790M (H1975 cells) (Homo sapiens, UniProt P00533, L858R/T790M); test: Inhibition of EGFR autophosphorylation (p-EGFR Y1068, western blot) in H1975 cells; format: cell-based; settings: 3 h incubation, densitometry of western blots
T2 construct: host or cells: H1975
Procedure: as §2
as §3, with “Blots were visualised using chemoluminescence (ECL, GE Healthcare, Little Chalfont, UK) and developed on Amersham Hyperfilm ECL (GE Healthcare). β-Actin was used as a loading control.” left out

[3] = biological target: T3, EGFR Del E746-A750 (PC9 cells) (Homo sapiens, UniProt P00533, DEL746-750); test: Inhibition of EGFR autophosphorylation (p-EGFR Y1068, western blot) in PC9 cells; format: cell-based; settings: 3 h incubation, densitometry of western blots
T3 construct: endogenous in cells; host or cells: PC9 (Dr Olivier Pardo, Imperial College London)
Procedure: as §2
as §3, with “Blots were visualised using chemoluminescence (ECL, GE Healthcare, Little Chalfont, UK) and developed on Amersham Hyperfilm ECL (GE Healthcare). β-Actin was used as a loading control.” left out

caco2 cells = test: Caco2 transwell assay; format: in vitro ADME, human; settings: pre-treatment with zosuquidar
Procedure: (§4) The caco2 transwell assay was performed to assess permeability. Cells were seeded at a density of 60,000 cells per well in 24 well transwell plates (Millipore, Billerica, Massachutsetts, USA), and maintained in DMEM supplemented with […] glucose (20% FBS, 1% penicillin/streptomycin, 1% glutamine) for 21 days at 37°C in 5% CO2. After 21 days the cells differentiate into enterocytes and express all three MDR proteins, ABCB1 and ABCG2 at the apical side and ABCC1 on the basal side. On day 21, cells were washed three times with Hank's Balanced Salt Solution (HBSS) (Fisher scientific, Loughborough, UK) and the trans-epithelial electric resistance (TERR) was measured using an Epithelial Voltohmmeter (EVOM) (World Precision Instruments, Sarasota, USA); only transwells with TERR of 400 Ω/cm^2 or above were used for the experiment. Cells were treated either at the apical (n = 3) or basal (n = 3) side of the transwell by addition of 10 μM of cyanoquinoline compound or 50 μM vinblastine prepared in a volume of 400 μL HBSS (compound added to apical well) or 800 μL of HBSS (added to basal well). When transport inhibitors FTC (10 μM) or zosuquidar (0.3 μM) were used, they were added to both the apical and basal wells 1 h prior to drug treatment. After 1 h pre-treatment the medium was removed and cells were treated with the compounds prepared in HBSS containing FTC or Zosuquidar.
(§5) Plates were incubated in shaker incubator at 37°C and 60 rpm for 120 min. After incubation, 200 μL aliquots from the apical and the basal wells were collected and analysed using high performance liquid chromatography (HPLC). Samples were run on a Millipore Waters HPLC system which included a 717 plus autosampler and 2487 dual wavelength absorbance detector system. The stationary phase comprised of a Phenomenex Luna C18 reverse phase column (150 X 4.6 mm; 5 μm particle size). The mobile phase comprised water (0.1% TFA) and acetonitrile (0.1% TFA) (80:20 v/v) at a flow rate of 1 mL/min for all compounds except vinblastine. For vinblastine, the stationary phase comprised a Supelcosil LC-ABZ reverse phase column (5 × 4.6 mm; 5 μm particle size). The mobile phase comprised water (0.1% formic acid) and methanol (90:10 to 10:90 v/v gradient over 20 min). Peak areas corresponding to the compounds of interest were recorded. Using standard curves the areas under the curve were converted into concentrations of compound. The permeability coefficient (Papp) was calculated using the following equation [30]: Papp = (dQ/dt)/A C0, where A is the surface area of the transwell membrane in cm^2 (= 0.33 cm^2), C0 is the drug concentration in the donor chamber at time t = 0 and dQ/dt is the rate of transfer of the compound to the receiver chamber, determined from the slope of the graph concentration (dQ) versus time (dt). Papp values corresponding to absorption and secretion were assessed and used to calculate efflux ratio. Efflux ratio =(Papp B−A)/(Papp A−B) Where Papp A-B = Papp absorption and Papp B-A = Papp secretion.
(§6) The integrity of the caco2 cell membrane was assessed for each well following the experiment by addition of a 100 μM solution of […] (Sigma) in HBSS to the apical side of the plate. The plates were placed in the shaker incubator for 1 h at 37°C and 60 rpm. Samples from the basal wells were transferred into a 96 well plate and the levels of […] were assessed by measuring with an excitation of 450 nm and an emission of 540 nm using the PerkinElmer Wallac 1420 counter.

Caco2 transwell assay = format: in vitro ADME, human; settings: human, Caco-2, no inhibitor; 10 μM cyanoquinoline or 50 μM vinblastine, 120 min; read-out: efflux ratio (Papp B-A / Papp A-B)
Procedure: as §4, §5, §6

EGFR L858R (H3255 cells) = biological target: T4, EGFR L858R (H3255 cells) (Homo sapiens, UniProt P00533, L858R); test: Inhibition of EGFR autophosphorylation (p-EGFR Y1068, western blot) in H3255 cells; format: cell-based; settings: 3 h incubation, densitometry of western blots
T4 construct: host or cells: H3255
Procedure: as §2
as §3, with “Blots were visualised using chemoluminescence (ECL, GE Healthcare, Little Chalfont, UK) and developed on Amersham Hyperfilm ECL (GE Healthcare). β-Actin was used as a loading control.” left out

T1 sequence (P00533 with tags, fused parts or gaps DEL746-750/T790M): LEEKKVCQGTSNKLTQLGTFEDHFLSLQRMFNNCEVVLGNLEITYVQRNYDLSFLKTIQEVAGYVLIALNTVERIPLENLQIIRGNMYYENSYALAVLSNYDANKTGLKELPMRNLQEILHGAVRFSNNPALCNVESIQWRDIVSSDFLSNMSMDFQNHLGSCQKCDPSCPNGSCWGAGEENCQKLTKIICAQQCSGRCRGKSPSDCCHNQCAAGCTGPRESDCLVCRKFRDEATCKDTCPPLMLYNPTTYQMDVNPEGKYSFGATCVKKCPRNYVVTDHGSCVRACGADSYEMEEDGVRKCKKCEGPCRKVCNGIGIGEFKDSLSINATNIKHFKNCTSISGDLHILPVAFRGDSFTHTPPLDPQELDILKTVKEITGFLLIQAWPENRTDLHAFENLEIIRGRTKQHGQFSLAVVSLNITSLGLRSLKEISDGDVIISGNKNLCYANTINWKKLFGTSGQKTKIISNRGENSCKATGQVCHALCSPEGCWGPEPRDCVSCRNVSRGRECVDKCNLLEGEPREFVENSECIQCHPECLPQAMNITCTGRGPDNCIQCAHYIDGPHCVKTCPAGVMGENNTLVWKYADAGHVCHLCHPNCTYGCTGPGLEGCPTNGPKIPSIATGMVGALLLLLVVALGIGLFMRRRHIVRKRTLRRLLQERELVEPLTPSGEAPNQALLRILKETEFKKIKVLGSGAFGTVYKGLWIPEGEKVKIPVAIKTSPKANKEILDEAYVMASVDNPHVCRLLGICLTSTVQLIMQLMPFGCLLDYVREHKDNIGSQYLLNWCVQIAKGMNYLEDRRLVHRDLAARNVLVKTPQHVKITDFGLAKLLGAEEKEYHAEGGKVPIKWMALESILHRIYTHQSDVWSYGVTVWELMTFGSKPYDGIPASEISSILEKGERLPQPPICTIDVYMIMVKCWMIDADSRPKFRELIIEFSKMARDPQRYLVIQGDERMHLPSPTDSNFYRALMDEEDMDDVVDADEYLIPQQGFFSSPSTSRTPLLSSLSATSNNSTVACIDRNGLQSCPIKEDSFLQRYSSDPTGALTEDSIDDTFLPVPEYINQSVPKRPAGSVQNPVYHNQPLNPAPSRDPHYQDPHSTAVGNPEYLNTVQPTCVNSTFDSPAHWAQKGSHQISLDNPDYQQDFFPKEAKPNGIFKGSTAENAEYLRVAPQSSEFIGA
T2 sequence (P00533 25-1210 T790M/L858R): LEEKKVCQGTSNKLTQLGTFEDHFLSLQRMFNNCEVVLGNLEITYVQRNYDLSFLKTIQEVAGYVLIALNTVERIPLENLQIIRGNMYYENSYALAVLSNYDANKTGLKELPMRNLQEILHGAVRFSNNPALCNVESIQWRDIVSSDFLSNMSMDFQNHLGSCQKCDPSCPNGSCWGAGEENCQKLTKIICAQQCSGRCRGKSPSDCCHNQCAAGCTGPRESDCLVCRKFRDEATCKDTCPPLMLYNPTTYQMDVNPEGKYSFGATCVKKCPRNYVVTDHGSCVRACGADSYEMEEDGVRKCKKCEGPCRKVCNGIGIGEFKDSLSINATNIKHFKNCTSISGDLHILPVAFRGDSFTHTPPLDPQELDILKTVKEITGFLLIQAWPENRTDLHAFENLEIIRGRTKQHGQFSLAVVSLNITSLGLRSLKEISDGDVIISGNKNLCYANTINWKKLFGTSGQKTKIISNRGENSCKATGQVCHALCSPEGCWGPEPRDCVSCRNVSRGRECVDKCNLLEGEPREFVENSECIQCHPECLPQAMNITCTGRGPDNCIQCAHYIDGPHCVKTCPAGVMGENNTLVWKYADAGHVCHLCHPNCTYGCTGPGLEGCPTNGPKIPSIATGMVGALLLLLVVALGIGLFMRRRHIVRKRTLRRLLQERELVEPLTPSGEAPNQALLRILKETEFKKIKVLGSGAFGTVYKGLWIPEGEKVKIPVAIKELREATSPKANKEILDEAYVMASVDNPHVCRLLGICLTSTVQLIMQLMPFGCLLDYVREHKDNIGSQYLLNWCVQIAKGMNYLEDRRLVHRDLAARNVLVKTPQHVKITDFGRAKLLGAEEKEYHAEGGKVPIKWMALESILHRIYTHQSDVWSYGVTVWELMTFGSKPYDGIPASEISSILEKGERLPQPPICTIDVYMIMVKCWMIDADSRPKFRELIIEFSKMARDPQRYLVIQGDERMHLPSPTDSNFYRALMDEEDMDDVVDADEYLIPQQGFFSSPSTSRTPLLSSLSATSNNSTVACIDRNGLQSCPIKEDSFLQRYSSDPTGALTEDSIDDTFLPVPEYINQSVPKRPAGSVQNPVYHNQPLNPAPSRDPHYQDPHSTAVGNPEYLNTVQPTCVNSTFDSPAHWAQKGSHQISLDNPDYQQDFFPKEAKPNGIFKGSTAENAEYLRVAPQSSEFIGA
T4 sequence (P00533 25-1210 L858R): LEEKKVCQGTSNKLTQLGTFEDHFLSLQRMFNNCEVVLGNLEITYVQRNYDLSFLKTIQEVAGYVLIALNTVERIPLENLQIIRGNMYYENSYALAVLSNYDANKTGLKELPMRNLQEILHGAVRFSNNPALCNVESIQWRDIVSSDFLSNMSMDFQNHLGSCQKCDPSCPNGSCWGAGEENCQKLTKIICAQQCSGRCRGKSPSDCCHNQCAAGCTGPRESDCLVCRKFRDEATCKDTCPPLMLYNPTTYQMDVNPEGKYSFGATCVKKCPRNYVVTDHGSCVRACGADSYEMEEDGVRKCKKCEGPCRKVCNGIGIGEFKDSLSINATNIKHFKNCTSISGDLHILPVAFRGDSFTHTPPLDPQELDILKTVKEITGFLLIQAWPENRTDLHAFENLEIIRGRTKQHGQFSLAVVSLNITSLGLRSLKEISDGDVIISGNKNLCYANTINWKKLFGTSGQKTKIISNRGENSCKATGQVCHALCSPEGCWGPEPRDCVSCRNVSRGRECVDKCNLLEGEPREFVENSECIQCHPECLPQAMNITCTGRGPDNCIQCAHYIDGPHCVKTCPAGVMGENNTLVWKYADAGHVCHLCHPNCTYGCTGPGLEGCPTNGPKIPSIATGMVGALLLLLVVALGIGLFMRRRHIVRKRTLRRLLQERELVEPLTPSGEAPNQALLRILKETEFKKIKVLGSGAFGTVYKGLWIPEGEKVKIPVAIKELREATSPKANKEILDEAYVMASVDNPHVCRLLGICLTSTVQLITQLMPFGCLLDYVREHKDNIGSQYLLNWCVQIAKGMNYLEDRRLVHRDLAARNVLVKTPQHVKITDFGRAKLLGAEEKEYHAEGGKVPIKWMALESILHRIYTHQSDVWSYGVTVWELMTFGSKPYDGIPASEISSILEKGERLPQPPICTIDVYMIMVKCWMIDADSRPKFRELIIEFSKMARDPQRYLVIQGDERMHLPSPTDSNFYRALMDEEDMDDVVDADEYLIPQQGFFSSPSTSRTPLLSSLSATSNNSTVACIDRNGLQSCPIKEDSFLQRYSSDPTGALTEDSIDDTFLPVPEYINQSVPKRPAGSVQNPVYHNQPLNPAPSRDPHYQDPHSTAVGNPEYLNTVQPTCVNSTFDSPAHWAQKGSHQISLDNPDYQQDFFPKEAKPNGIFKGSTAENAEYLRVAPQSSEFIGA
T3 sequence (P00533 with tags, fused parts or gaps DEL746-750): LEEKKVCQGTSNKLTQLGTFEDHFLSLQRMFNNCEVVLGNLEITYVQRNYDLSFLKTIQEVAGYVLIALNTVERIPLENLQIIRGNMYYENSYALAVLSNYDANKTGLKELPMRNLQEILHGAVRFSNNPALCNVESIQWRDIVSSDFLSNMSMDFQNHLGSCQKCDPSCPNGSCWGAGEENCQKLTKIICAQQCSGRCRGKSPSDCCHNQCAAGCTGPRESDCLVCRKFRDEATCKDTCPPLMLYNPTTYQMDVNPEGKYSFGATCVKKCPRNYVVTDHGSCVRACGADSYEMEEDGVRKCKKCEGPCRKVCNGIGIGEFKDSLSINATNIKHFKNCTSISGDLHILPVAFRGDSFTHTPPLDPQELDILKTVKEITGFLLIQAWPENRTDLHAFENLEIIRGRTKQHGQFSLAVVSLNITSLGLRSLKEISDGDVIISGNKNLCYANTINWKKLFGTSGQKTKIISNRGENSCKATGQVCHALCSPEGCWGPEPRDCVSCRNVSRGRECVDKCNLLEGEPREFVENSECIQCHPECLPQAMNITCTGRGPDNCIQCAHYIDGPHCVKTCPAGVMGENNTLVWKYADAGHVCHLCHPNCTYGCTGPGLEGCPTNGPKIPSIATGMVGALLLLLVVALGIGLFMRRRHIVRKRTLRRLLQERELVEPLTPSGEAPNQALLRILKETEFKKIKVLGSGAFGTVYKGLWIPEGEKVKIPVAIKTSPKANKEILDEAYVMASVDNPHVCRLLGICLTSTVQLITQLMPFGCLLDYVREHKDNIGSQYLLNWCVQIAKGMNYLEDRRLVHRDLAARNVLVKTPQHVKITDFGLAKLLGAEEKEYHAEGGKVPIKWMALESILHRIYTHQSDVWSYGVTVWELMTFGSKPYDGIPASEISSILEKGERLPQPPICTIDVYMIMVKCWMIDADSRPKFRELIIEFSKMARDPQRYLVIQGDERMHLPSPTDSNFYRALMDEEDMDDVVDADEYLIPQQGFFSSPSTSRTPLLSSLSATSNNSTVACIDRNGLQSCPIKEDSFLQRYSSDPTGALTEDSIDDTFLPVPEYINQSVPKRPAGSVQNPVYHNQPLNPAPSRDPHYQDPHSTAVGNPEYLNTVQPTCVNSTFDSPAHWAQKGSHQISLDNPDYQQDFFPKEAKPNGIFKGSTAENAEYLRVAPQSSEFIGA

IC50 ([1]; 3 h incubation, densitometry of western blots) [nM] | fold higher IC50 (p-EGFR) in PC9ER compared to PC9 ([1]; PC9ER versus isogenic PC9) [fold] | IC50 [2] [nM] | IC50 [3] [nM] | efflux (permeability) ratio after pre-treatment with zosuquidar (caco2 cells) | efflux ratio at 120 min (Caco2 transwell assay) | IC50 (EGFR L858R (H3255 cells)) [nM] | SMILES | fold lower magnitude of uptake than [^18F]FED6 (cells) [fold] | fold higher uptake in PC9 compared to PC9ER cells (PC9 and PC9ER cells) [fold] | IC50 (EGFR) [nM]
 |  |  |  |  |  |  | CCOc1cc2ncc(C#N)c(Nc3ccc(F)c(Cl)c3)c2cc1NC(=O)/C=C/CNCc1cn([C@@H]2OC(CO)[C@@H](O)C(O)C2[18F])nn1 (stereo partly drawn) [[^18F]FED20, [^18F](2E)-N-{4-[(3-chloro-4-fluorophenyl)amino]-3-cyano-7-ethoxyquinolin-6-yl}-4-[({1-[(2R,5S)-3-fluoro-4,5-dihydroxy-6-(hydroxymethyl)oxan-2-yl]-1H-1,2,3-triazol-4-yl}methyl)amino]but-2-enamide] | > 5 | 2 | 
700 | 2 | 7100 | 300 | did not have any effect | 1.3 | 300 | CCOc1cc2ncc(C#N)c(Nc3ccc(F)c(Cl)c3)c2cc1NC(=O)/C=C/CNCc1cn([C@@H]2OC(CO)[C@@H](O)C(O)C2F)nn1 (stereo partly drawn) [FED20, (2E)-N-{4-[(3-chloro-4-fluorophenyl)amino]-3-cyano-7-ethoxyquinolin-6-yl}-4-[({1-[(2R,5S)-3-fluoro-4,5-dihydroxy-6-(hydroxymethyl)oxan-2-yl]-1H-1,2,3-triazol-4-yl}methyl)amino]but-2-enamide] |  |  | 4.5
